Experiments:
BT-474 Tam1 [1] = assay: drug sensitivity score (DSS) (DSS (dimensionless)); higher = more sensitive; extreme values may be limits of the assay; details: 4-OH-tamoxifen in medium 1 µM; 72 h
Protocol: (§1)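 FIMM FO2B library drugs were tested at 5 concentrations (10,000-fold range) for 72 h, with CellTiter-Glo viability normalised to DMSO and benzethonium chloride controls. The Drug Sensitivity Score (DSS) is computed from the fitted logistic dose-response curve (area-based; 0 = inactive). Resistant lines and the 'in 1µM tamoxifen' arms were tested in 1 µM 4-OH-tamoxifen.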

BT-474 Tam2 [2] = assay: as above; details: 4-OH-tamoxifen in medium 1 µM; 72 h
Protocol: as §1

BT-474 [3] = assay: as above; details: 72 h
Protocol: as §1

MCF-7 Tam1 [4] = assay: as above; details: 4-OH-tamoxifen in medium 1 µM; 72 h
Protocol: as §1

MCF-7 [5] = assay: as above; details: 72 h
Protocol: as §1

T-47D Tam1 [6] = assay: as above; details: 4-OH-tamoxifen in medium 1 µM; 72 h
Protocol: as §1

T-47D Tam2 = assay: as above; details: 4-OH-tamoxifen in medium 1 µM; 72 h
Protocol: as §1

T-47D [7] = assay: as above; details: 72 h
Protocol: as §1

ZR-75-1 Tam1 [8] = assay: as above; details: 4-OH-tamoxifen in medium 1 µM; 72 h
Protocol: as §1

ZR-75-1 Tam2 [9] = assay: as above; details: 4-OH-tamoxifen in medium 1 µM; 72 h
Protocol: as §1

ZR-75-1 [10] = assay: as above; details: 72 h
Protocol: as §1

BT-474 Tam1 [11] = assay: relative IC50 (midpoint of fitted logistic curve, plateau may be below 50% inhibition; CellTiter-Glo viability); higher = less potent; details: 4-OH-tamoxifen in medium 1 µM; 72 h
Protocol: (§2)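 FIMM FO2B library drugs were plated at 5 concentrations spanning a 10,000-fold range in 384-well plates. Cells were incubated for 72 h at 37 °C and viability was read by CellTiter-Glo, normalised to DMSO (0% inhibition) and 100 µM benzethonium chloride (100% inhibition). IC50 values come from logistic dose-response fits (Breeze pipeline). Tamoxifen-resistant lines and the 'in 1µM tamoxifen' parental arms were tested in medium with 1 µM 4-OH-tamoxifen.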

BT-474 Tam2 [12] = assay: as above; details: 4-OH-tamoxifen in medium 1 µM; 72 h
Protocol: as §2

BT-474 [13] = assay: as above; details: 72 h
Protocol: as §2

MCF-7 Tam1 [14] = assay: as above; details: 4-OH-tamoxifen in medium 1 µM; 72 h
Protocol: as §2

MCF-7 [15] = assay: as above; details: 72 h
Protocol: as §2

T-47D [16] = assay: as above; details: 72 h
Protocol: as §2

ZR-75-1 Tam1 [17] = assay: as above; details: 4-OH-tamoxifen in medium 1 µM; 72 h
Protocol: as §2

ZR-75-1 Tam2 [18] = assay: as above; details: 4-OH-tamoxifen in medium 1 µM; 72 h
Protocol: as §2

ZR-75-1 [19] = assay: as above; details: 72 h
Protocol: as §2

T-47D Tam1 [20] = assay: as above; details: 4-OH-tamoxifen in medium 1 µM; 72 h
Protocol: as §2

relative IC50 (BT-474 Tam1 [11]) [nM]	relative IC50 (BT-474 Tam2 [12]) [nM]	relative IC50 (BT-474 [13]; 4-OH-tamoxifen in medium 0 µM) [nM]	relative IC50 (BT-474 [13]; 4-OH-tamoxifen in medium 1 µM) [nM]	relative IC50 (MCF-7 Tam1 [14]) [nM]	relative IC50 (MCF-7 [15]; 4-OH-tamoxifen in medium 0 µM) [nM]	relative IC50 (T-47D [16]; 4-OH-tamoxifen in medium 0 µM) [nM]	relative IC50 (T-47D [16]; 4-OH-tamoxifen in medium 1 µM) [nM]	relative IC50 (MCF-7 [15]; 4-OH-tamoxifen in medium 1 µM) [nM]	Structure (SMILES)	drug sensitivity score (BT-474 Tam1 [1])	drug sensitivity score (BT-474 Tam2 [2])	drug sensitivity score (BT-474 [3]; 4-OH-tamoxifen in medium 0 µM)	drug sensitivity score (BT-474 [3]; 4-OH-tamoxifen in medium 1 µM)	drug sensitivity score (MCF-7 Tam1 [4])	drug sensitivity score (MCF-7 [5]; 4-OH-tamoxifen in medium 0 µM)	drug sensitivity score (MCF-7 [5]; 4-OH-tamoxifen in medium 1 µM)	drug sensitivity score (T-47D Tam1 [6])	drug sensitivity score (T-47D Tam2)	drug sensitivity score (T-47D [7]; 4-OH-tamoxifen in medium 0 µM)	drug sensitivity score (T-47D [7]; 4-OH-tamoxifen in medium 1 µM)	drug sensitivity score (ZR-75-1 Tam1 [8])	drug sensitivity score (ZR-75-1 Tam2 [9])	drug sensitivity score (ZR-75-1 [10]; 4-OH-tamoxifen in medium 0 µM)	drug sensitivity score (ZR-75-1 [10]; 4-OH-tamoxifen in medium 1 µM)	relative IC50 (ZR-75-1 Tam1 [17]) [nM]	relative IC50 (ZR-75-1 Tam2 [18]) [nM]	relative IC50 (ZR-75-1 [19]; 4-OH-tamoxifen in medium 0 µM) [nM]	relative IC50 (ZR-75-1 [19]; 4-OH-tamoxifen in medium 1 µM) [nM]	relative IC50 (T-47D Tam1 [20]) [nM]
2.12	3.4	13.4	5.56	> 1000	> 1000	> 1000	> 1000	–	C=CC(=O)N1CCC[C@@H](n2nc(-c3ccc(Oc4ccccc4)cc3)c3c(N)ncnc32)C1	31.9	29	18.1	26.2	0	0	2.36	2.76	0.549	0	0	0	0	0	0	> 1000	> 1000	> 1000	> 1000	–
–	–	2500	2750	> 10000	–	–	> 10000	–	COc1cc2c(cc1O)CC[C@@H]1[C@@H]2CC[C@]2(C)[C@@H](O)CC[C@@H]12 [2-methoxyestradiol  (Panzem)]	0.83	0.943	3.19	3.93	0	3.15	0.767	0.761	1.01	0.97	0	0	0	1.28	0	> 10000	> 10000	4130	> 10000	–
> 1000	> 1000	> 1000	> 1000	> 1000	129	> 1000	–	> 1000	NC(=O)Nc1cc(-c2cccc(F)c2)sc1C(=O)N[C@H]1CCCNC1 [AZD7762]	0	0	0	0	0	3.41	0	3	2.77	0	2	0	0	0	0	> 1000	> 1000	–	> 1000	–
12.4	13.1	25.7	15.8	> 1000	> 1000	> 1000	> 1000	–	CN(C)C/C=C/C(=O)Nc1cc2c(Nc3ccc(F)c(Cl)c3)ncnc2cc1O[C@H]1CCOC1 [Afatinib (BIBW2992, Tovok)]	21.9	21.8	15.3	20.5	0	0	0.328	1.83	0.583	0	0	0	0	0	0	> 1000	> 1000	> 1000	> 1000	–
> 10000	–	–	–	> 10000	2960	–	> 10000	> 10000	Nc1ncn([C@@H]2O[C@H](CO)[C@@H](O)[C@H]2O)c(=O)n1 [Azacitidine]	0	0.198	0.0007	0.194	0	1.55	0	0.8	0.867	0.134	0	0.0216	0	0.0144	0	–	> 10000	–	> 10000	–
> 1000	> 1000	> 1000	> 1000	> 1000	> 1000	> 1000	> 1000	> 1000	Nc1nc(Cl)nc2c1ncn2[C@H]1C[C@H](O)[C@@H](CO)O1 [Cladribine]	0	0	0	0	0	0	0	0.899	0	0	0	0.538	1.16	0.0944	0.126	–	–	–	–	–
–	> 10000	> 10000	–	> 10000	–	–	> 10000	–	Cc1ccc(-n2nc(C(C)(C)C)cc2NC(=O)Nc2ccc(OCCN3CCOCC3)c3ccccc23)cc1 [Doramapimod (BIRB 796)]	1.04	0	0	0.211	0	0.173	0.239	0.342	1.06	0	0	0	0	0	0	> 10000	> 10000	> 10000	> 10000	–
–	–	> 10000	> 10000	> 10000	> 10000	> 10000	> 10000	–	CC(C)(C)NC(=O)[C@H]1CC[C@H]2[C@@H]3CC[C@H]4NC(=O)C=C[C@]4(C)[C@H]3CC[C@]12C [Finasteride]	1.69	0.793	0	0	0	0	0.553	0.762	0.298	0	0	0	0	0	0	> 10000	> 10000	> 10000	> 10000	–
> 10000	–	> 10000	–	> 10000	> 10000	–	–	–	CC(C)Cn1cnc2c(N)nc3ccccc3c21 [Imiquimod]	0	0	0	0.268	0	0	0.399	1.59	0.195	0.182	0	0	0	0	0	> 10000	> 10000	> 10000	> 10000	–
–	–	> 1000	–	> 1000	–	> 1000	> 1000	–	Cn1c(=O)c(F)c(Nc2ccc(I)cc2F)c2c(=O)n(C[C@@H](O)CO)cnc21 [TAK-733]	0	2.4	0	2.56	0	1.63	5.38	3.14	0.474	0	0	0	0	0	0	> 1000	> 1000	> 1000	> 1000	–
–	4070	> 10000	–	> 10000	–	> 10000	–	–	Cc1cc(C(C)Nc2ccccc2)c2nc(N3CCOCC3)cc(=O)n2c1 (centres undefined) [TGX-221]	1.23	1.6	0	0.562	0	1.97	2.11	0.102	0.389	0	0.16	9.5	14.3	13.2	11	193	104	74.3	74.8	–
–	–	401	223	> 1000	–	364	–	–	O=C1NC(=O)[C@@H](c2cn3c4c(cccc24)CCC3)[C@@H]1c1c[nH]c2ccccc12 [Tivatinib (ARQ 197)]	0.142	0	1.2	3.08	0	3.81	0.0182	0.827	0.839	1.88	0	0	0	0.524	0	> 1000	> 1000	–	–	–
–	–	> 1000	> 1000	> 1000	–	> 1000	> 1000	–	COc1cc2/c(=N/c3ccc(Br)cc3F)nc[nH]c2cc1OCC1CCN(C)CC1 [Vandetanib  (ZD6474, Zactima)]	0.381	0.605	0	0	0	0.65	0.193	0.009	1.6	0	0	0	0	0	0	> 1000	> 1000	> 1000	> 1000	–
–	> 1000	–	–	> 1000	–	361	–	12.5	CC[C@@H]1C(=O)N(C)c2cnc(Nc3ccc(C(=O)N[C@H]4CC[C@H](N5CCN(CC6CC6)CC5)CC4)cc3OC)nc2N1C(C)C [Volasertib (BI 6727)]	0.654	0	1.47	7.11	0	2.8	7	2.19	2.13	1.16	2.85	1.07	0.29	0	0.706	–	–	> 1000	–	–

Structure (SMILES)	relative IC50 (BT-474 Tam1 [11]) [nM]	relative IC50 (BT-474 Tam2 [12]) [nM]	relative IC50 (BT-474 [13]; 4-OH-tamoxifen in medium 0 µM) [nM]	relative IC50 (BT-474 [13]; 4-OH-tamoxifen in medium 1 µM) [nM]	relative IC50 (MCF-7 Tam1 [14]) [nM]	relative IC50 (MCF-7 [15]; 4-OH-tamoxifen in medium 0 µM) [nM]	relative IC50 (T-47D [16]; 4-OH-tamoxifen in medium 0 µM) [nM]	relative IC50 (T-47D [16]; 4-OH-tamoxifen in medium 1 µM) [nM]	relative IC50 (MCF-7 [15]; 4-OH-tamoxifen in medium 1 µM) [nM]	drug sensitivity score (BT-474 Tam1 [1])	drug sensitivity score (BT-474 Tam2 [2])	drug sensitivity score (BT-474 [3]; 4-OH-tamoxifen in medium 0 µM)	drug sensitivity score (BT-474 [3]; 4-OH-tamoxifen in medium 1 µM)	drug sensitivity score (MCF-7 Tam1 [4])	drug sensitivity score (MCF-7 [5]; 4-OH-tamoxifen in medium 0 µM)	drug sensitivity score (MCF-7 [5]; 4-OH-tamoxifen in medium 1 µM)	drug sensitivity score (T-47D Tam1 [6])	drug sensitivity score (T-47D Tam2)	drug sensitivity score (T-47D [7]; 4-OH-tamoxifen in medium 0 µM)	drug sensitivity score (T-47D [7]; 4-OH-tamoxifen in medium 1 µM)	drug sensitivity score (ZR-75-1 Tam1 [8])	drug sensitivity score (ZR-75-1 Tam2 [9])	drug sensitivity score (ZR-75-1 [10]; 4-OH-tamoxifen in medium 0 µM)	drug sensitivity score (ZR-75-1 [10]; 4-OH-tamoxifen in medium 1 µM)	relative IC50 (ZR-75-1 Tam1 [17]) [nM]	relative IC50 (ZR-75-1 Tam2 [18]) [nM]	relative IC50 (ZR-75-1 [19]; 4-OH-tamoxifen in medium 0 µM) [nM]	relative IC50 (ZR-75-1 [19]; 4-OH-tamoxifen in medium 1 µM) [nM]	relative IC50 (T-47D Tam1 [20]) [nM]
Cc1sc2c(c1C)C(c1ccc(Cl)cc1)=N[C@@H](CC(=O)OC(C)(C)C)c1nnc(C)n1-2 [(+)JQ1]	1140	1120	136	1060	–	189	345	–	851	8.34	8.29	6.3	7.87	0.216	12.8	6.92	11	2.91	5.63	2.13	7.1	6.24	3.81	4.27	238	336	–	359	146
O=C(Nc1ccncc1)C(=O)c1cn(Cc2ccc(Cl)cc2)c2ccccc12 [Indibulin]	> 10000	–	–	474	> 10000	32	> 10000	–	189	0	3.18	0.543	4.58	0	8.82	6.28	3.37	0.194	0	0.395	0.0575	0.106	0.997	0	–	–	–	> 10000	–
